Measurements taken from US20240083857A1, “2-Methyl-Quinazolines” (Bayer Pharma Aktiengesellschaft, priority 2017, published 2024).

How the values were obtained:
[1] = target: K-Ras^G12C : hSOS1 interaction (Homo sapiens, UniProt Q07889); assay: Biochemical assay 1: K-Ras^G12C interaction assay with hSOS1 (HTRF); assay type: binding; settings: read-out: Assay 1 (KRAS-SOS Interaction) activity expressed as IC50
[2] = target: human SOS1 (loading of human K-Ras^G12C-GDP with fluorescent GTP-analog) (Homo sapiens, UniProt Q07889); assay: Biochemical assay 3: K-Ras^G12C activation assay by hSOS1 (HTRF); settings: no GTP; read-out: Assay 3 (KRAS-Activation by SOS no GTP) activity expressed as IC50

| SMILES | IC50 [1] [nM] | IC50 [2] [nM] |
| --- | --- | --- |
| COc1cc2nc(C)nc(NC(C)c3ccc4c(c3)CCCC4)c2cc1OC (stereo not shown) [Example 25, 6,7-dimethoxy-2-methyl-N-[1-(5,6,7,8-tetrahydronaphthalen-2-yl)ethyl]quinazolin-4-amine] | 541 | 1500 |
| COc1cc2nc(C)nc(NC(C)c3cccc4c3CCO4)c2cc1OC (stereo not shown) [Example 22, N-[1-(2,3-dihydro-1-benzofuran-4-yl)ethyl]-6,7-dimethoxy-2-methylquinazolin-4-amine] | 177 | 589 |
